Measurements published in patent publication US11369572B2, “Fas (Apo-1,CD95) targeted platforms for intracellular drug delivery” (Queen Mary & Westfield College, priority 2009, dated 2022).

Test system: IGROV1-luciferase cells
Experiment: Peritoneal ovarian cancer xenograft, bioluminescence imaging
Details: by day 48; n=5
Description: 5×10^6 IGROV1-luciferase cells were inoculated IP into female Balb C nu/nu mice on day 1. Paclitaxel (20 mg/kg) and PLGA microspheres were administered IP once per week (days 7, 14, 21 and 28). For bioluminescence imaging, mice were injected IP with 125 mg/kg D-luciferin (Calliper Life Sciences, UK) and then anesthetized (2% isofluorane by inhalation). Five minutes later, whilst still under anaesthetic, they were placed in a light-tight chamber on a warmed stage (37° C.) and light emission from a defined region of interest on a ventral surface was imaged on a Xenogen IVIS Imaging System 100 system (Alameda, Calif., USA). Data were analyzed using Living Image software (also Xenogen, Alameda, Calif., USA) and are presented as relative radiance (calculated from mean Radiance photons/s/cm2/sr).”
Standard error of mean (SEM) was used to assess consistency between each experimental group. One way ANOVA with Bonferroni post test were used to evaluate differences between groups. Two tailed t test was used to compare two groups.

Q: For `CC(=O)O[C@H]1C(=O)[C@@]2(C)[C@H]([C@H](OC(=O)c3ccccc3)[C@]3(O)C[C@H](OC(=O)[C@H](O)[C@@H](NC(=O)c4ccccc4)c4ccccc4)C(C)=C1C3(C)C)[C@]1(OC(C)=O)CO[C@@H]1C[C@@H]2O` [paclitaxel], which further animals sacrificed is on record?
A: 2
